According to patent US20140093457A1, “Compositions, methods and kits for remineralization and inhibition of dental caries in teeth” (President and Fellows of Harvard College, priority 2010, published 2014):
Entries after “also recorded” stand apart in the source; their conditions may differ.

Tests used:
[1] = Detection probes on interproximal models of extracted human teeth; settings: for degree of detection: early stage caries lesion, optical observation; for emission wavelength (nm) / excitation/absorbance wavelength (nm): probe bound to interproximal enamel caries; for optical observation of early stage caries lesion with bound probe (photograph): tooth preparation illuminated and photographed
Description: Interproximal models of extracted human teeth (molars and premolars) were fabricated using silicon impression materials. Interproximal enamel caries at about […] depth and at about 1.5 mm depth were prepared by using areas of interproximal contact regions. The dental preparations having synthetic caries were assessed by radiographic films (bitewings) and a microscope.
A cotton ball was saturated with the detection probe, and placed in contact with the region of the interproximal enamel caries. The bound probe was observed by illuminating over a varying set of different wavelengths of excitation light, followed by detecting light of fluorescent emissions. Furthermore, absorbance of the illuminating wavelengths was detected as appropriate for each probe.
Each tooth preparation having interproximal enamel caries and bound probe was illuminated and photographed.

[2] = Intensity and duration of fluorescence of probe dilutions bound to caries; settings: for fluorescent intensity compared to IR820 (ICG): dilutions 1:10 and 1:100 of 1 mg/mL stock, deep and shallow lesions
Description: Probes were tested for appropriate concentration, kinetics of binding and retention. Intensity of the illumination light, and the size of the illumination light beam were varied, and data were recorded for each probe. […] The concentration of each probe was varied to determine an optimum concentration for binding during a time period suitable for dental use. Durations of contacting were also tested, for example about 10 seconds, about 20 seconds, about 40 seconds, or about 60 seconds. Binding of the probes to the surface of a tooth having different occlusal cavity conditions were also determined, e.g., plaque, gingival, calculus.
See FIG. 10A and FIG. 10B, and FIG. 11A-FIG. 11D.

[3] = RFU comparison of solutions to release OsteoSense 750 from HA
Description: Variables included conditions of pH, temperature, and presence of 1% calcium chloride.
Three conditions were tested: incubation for 15 minutes at 37° C. after vortexing; adjusting pH to 6.5 at 23° C. after vortexing; and addition of 1% calcium chloride to each solution and incubation at room temperature after vortexing.

[4] = Removal of OsteoSense 750 from hydroxyapatite, spectrophotometry at 750 nm; settings: hydrogen peroxide 30%, phosphoric acid 40%
Description: The tubes were vortexed, and the mixture was allowed to settle to obtain a supernatant. Each supernatant was collected and analyzed for probe content using a spectrophotomer.
The HA sample was washed with PBS and a spectrophotometric scan of the wash solution was performed.

[5] = 1% solution with calcium chloride (1%), room temperature
[6] = 1% solution, 15 minutes at 37° C.
[7] = 1% solution, pH 6.5, room temperature
[8] = 5% solution with calcium chloride (1%), room temperature
[9] = 5% solution, 15 minutes at 37° C.
[10] = 5% solution, pH 6.5, room temperature
[11] = 10% solution with calcium chloride (1%), room temperature
[12] = 10% solution, 15 minutes at 37° C.
[13] = 10% solution, pH 6.5, room temperature
[14] = 20% solution, 15 minutes at 37° C.
[15] = 20% solution with calcium chloride (1%), room temperature
[16] = 20% solution, pH 6.5, room temperature

| Compound | degree of detection [1] | emission wavelength (nm) [1] | excitation/absorbance wavelength (nm) [1] | % released of total OsteoSense [3, 5] [%] | % released of total reference value [3, 5] [%] | Raw RFU value [3, 5] [RFU] | % released of total OsteoSense [3, 6] [%] | % released of total reference value [3, 6] [%] | Raw RFU value [3, 6] [RFU] | % released of total OsteoSense [3, 7] [%] | % released of total reference value [3, 7] [%] | Raw RFU value [3, 7] [RFU] | % released of total OsteoSense [3, 8] [%] | % released of total reference value [3, 8] [%] | Raw RFU value [3, 8] [RFU] | % released of total OsteoSense [3, 9] [%] | % released of total reference value [3, 9] [%] | Raw RFU value [3, 9] [RFU] | % released of total OsteoSense [3, 10] [%] | % released of total reference value [3, 10] [%] | also measured |
| --- | --- | --- | --- | --- | --- | --- | --- | --- | --- | --- | --- | --- | --- | --- | --- | --- | --- | --- | --- | --- | --- |
| CC1(C)C(/C=C/C=C/C=C/C=C2\N(CCCCS(=O)(=O)[O-])c3ccc4ccccc4c3C2(C)C)=[N+](CCCCS(=O)(=O)[O-])c2ccc3ccccc3c21.[Na+] [CardioGreen (ICG)] | Good | 820-870 nm | 750-800 nm |  |  |  |  |  |  |  |  |  |  |  |  |  |  |  |  |  | fluorescent intensity compared to IR820 (ICG) [2]: greater fluorescent intensity at each concentration and lesion depth compared to IR820 (ICG) |
| C=Cc1c(C)c2cc3nc(c4c5[n-]c(cc6nc(cc1[n-]2)C(C)=C6CC)c(C)c5C(=O)[C@@H]4C(=O)OC)[C@@H](CCC(=O)OC/C=C(\C)CCC[C@H](C)CCC[C@H](C)CCCC(C)C)[C@@H]3C.[Mg+2] [Chlorophyll A] | Good | 670-900 nm | 614 nm |  |  |  |  |  |  |  |  |  |  |  |  |  |  |  |  |  | optical observation of early stage caries lesion with bound probe (photograph) [1]: Fluorescence of an early stage caries lesion was observed |
| COc1cccc2c1C(=O)c1c(O)c3c(c(O)c1C2=O)C[C@@](O)(C(=O)CO)C[C@@H]3O[C@H]1C[C@H](N)[C@H](O)[C@H](C)O1 [Doxorubicin] | Good | 630 nm | 480 nm |  |  |  |  |  |  |  |  |  |  |  |  |  |  |  |  |  | optical observation of early stage caries lesion with bound probe (photograph) [1]: Fluorescence of an early stage caries lesion was observed |
| CC1(C)C(=CC=C2CCCC(C=CC3=[N+](CCCCS(=O)(=O)[O-])c4ccc5ccccc5c4C3(C)C)=C2Cl)N(CCCCS(=O)(=O)[O-])c2ccc3ccccc3c21.[Na+] [IR820 (ICG)] | Good | 845 nm | 745 nm |  |  |  |  |  |  |  |  |  |  |  |  |  |  |  |  |  |  |
| CC1(C)C(/C=C/C=C/C=C/C=C2\N(CCCCS(=O)(=O)O)c3ccc4ccccc4c3C2(C)C)=[N+](CCCCS(=O)(=O)[O-])c2ccc3ccccc3c21 [Indocyanine Green] | Weak | 835 nm | 800 nm |  |  |  |  |  |  |  |  |  |  |  |  |  |  |  |  |  |  |
| C1=Cc2cc3ccc(cc4nc(cc5ccc(cc1n2)[nH]5)C=C4)[nH]3 [Porphyrin] | Good | 700 nm | 600 nm |  |  |  |  |  |  |  |  |  |  |  |  |  |  |  |  |  | optical observation of early stage caries lesion with bound probe (photograph) [1]: Fluorescence of an early stage caries lesion was observed |
| O=P(O)(O)CP(=O)(O)O [methylene phosphoric acid (MDP), methylene phosphoric acid] |  |  |  | 1.45 | 1.54 | 0.54 | 2.49 | 2.11 | 0.93 | 3.59 | 2.50 | 1.35 | 23.89 | 32.07 | 8.96 | 34.33 | 30.09 | 12.88 | 35.61 | 27.41 | Raw RFU value [3, 10]: 13.35 RFU; % released of total OsteoSense [3, 11]: 34.23%; % released of total reference value [3, 11]: 37.57%; Raw RFU value [3, 11]: 12.83 RFU; % released of total OsteoSense [3, 12]: 56.56%; % released of total reference value [3, 12]: 55.84%; Raw RFU value [3, 12]: 21.21 RFU; % released of total OsteoSense [3, 13]: 59.77%; % released of total reference value [3, 13]: 41.32%; Raw RFU value [3, 13]: 22.41 RFU; % released of total OsteoSense [3, 14]: −0.13%; Raw RFU value [3, 14]: −0.05 RFU; relative efficacy in removing OsteoSense 750 from HA ([3]; compared with the other agents): remove more OsteoSense 750 from HA than sodium phosphate monobasic or sodium phosphate dibasic at each concentration; also recorded: generally most effective for removing OsteoSense 750 |
| O=P(O)(O)O [phosphoric acid (PA), phosphoric acid] |  |  |  | 1.01 | 2.27 | 0.38 | 4.61 | 7.36 | 1.73 | 6.17 | 18.74 | 2.31 | 9.44 | 40.79 | 3.54 | 9.78 | 18.94 | 3.67 | 28.38 | 39.54 | Raw RFU value [3, 10]: 10.64 RFU; % released of total OsteoSense [3, 11]: 10.57%; % released of total reference value [3, 11]: 43.29%; Raw RFU value [3, 11]: 3.97 RFU; % released of total OsteoSense [3, 12]: 4.37%; % released of total reference value [3, 12]: 9.10%; Raw RFU value [3, 12]: 1.64 RFU; % released of total OsteoSense [3, 13]: 45.32%; % released of total reference value [3, 13]: 67.03%; Raw RFU value [3, 13]: 17.00 RFU; % released of total OsteoSense [3, 15]: 5.12%; % released of total reference value [3, 15]: 11.99%; Raw RFU value [3, 15]: 1.92 RFU; % released of total OsteoSense [3, 14]: 3.54%; % released of total reference value [3, 14]: 8.51%; Raw RFU value [3, 14]: 1.33 RFU; % released of total OsteoSense [3, 16]: 25.34%; % released of total reference value [3, 16]: 39.91%; Raw RFU value [3, 16]: 9.50 RFU; spectrometric signal at 750 nm in supernatant (release of OsteoSense 750 from HA) [4]: definite peak at 750 nm |
| O=P([O-])([O-])O.[Na+].[Na+] [sodium phosphate dibasic (D), sodium phosphate dibasic] |  |  |  | 0.01 | 0.02 | 0.00 | 2.97 | 2.30 | 1.11 | 1.81 | 2.08 | 0.68 | 4.67 | 4.11 | 1.75 | 14.21 | 13.12 | 5.33 | 14.64 | 14.63 | Raw RFU value [3, 10]: 5.49 RFU; % released of total OsteoSense [3, 11]: 4.90%; % released of total reference value [3, 11]: 5.28%; Raw RFU value [3, 11]: 1.84 RFU; % released of total OsteoSense [3, 12]: 27.90%; % released of total reference value [3, 12]: 31.69%; Raw RFU value [3, 12]: 10.46 RFU; % released of total OsteoSense [3, 13]: 25.75%; % released of total reference value [3, 13]: 21.10%; Raw RFU value [3, 13]: 9.66 RFU; % released of total OsteoSense [3, 15]: 14.02%; % released of total reference value [3, 15]: 29.08%; Raw RFU value [3, 15]: 5.26 RFU; % released of total OsteoSense [3, 14]: 35.48%; % released of total reference value [3, 14]: 27.01%; Raw RFU value [3, 14]: 13.30 RFU; % released of total OsteoSense [3, 16]: 56.19%; % released of total reference value [3, 16]: 55.57%; Raw RFU value [3, 16]: 21.07 RFU |
| O=P([O-])(O)O.[Na+] [sodium phosphate monobasic (M), sodium phosphate monobasic] |  |  |  | 0.60 | 2.51 | 0.22 | 3.10 | 3.65 | 1.16 | 6.36 | 9.73 | 2.38 | 5.34 | 11.39 | 2.00 | 10.41 | 13.11 | 3.90 | 23.87 | 31.74 | Raw RFU value [3, 10]: 8.95 RFU; % released of total OsteoSense [3, 11]: 10.27%; % released of total reference value [3, 11]: 20.25%; Raw RFU value [3, 11]: 3.85 RFU; % released of total OsteoSense [3, 12]: 23.92%; % released of total reference value [3, 12]: 32.36%; Raw RFU value [3, 12]: 8.97 RFU; % released of total OsteoSense [3, 13]: 32.44%; % released of total reference value [3, 13]: 45.17%; Raw RFU value [3, 13]: 12.16 RFU; % released of total OsteoSense [3, 15]: 20.04%; % released of total reference value [3, 15]: 39.19%; Raw RFU value [3, 15]: 7.51 RFU; % released of total OsteoSense [3, 14]: 27.67%; % released of total reference value [3, 14]: 50.11%; Raw RFU value [3, 14]: 10.37 RFU; % released of total OsteoSense [3, 16]: 33.90%; % released of total reference value [3, 16]: 51.43%; Raw RFU value [3, 16]: 12.71 RFU |
| cyanine dye 7 [Cy7] |  | 760-800 nm | 700-770 nm |  |  |  |  |  |  |  |  |  |  |  |  |  |  |  |  |  | retained fluorescence intensity compared to CardioGreen (ICG) diluted 1:10 ([2]; diluted 1:10, deep and shallow lesions): much greater intensity in both deep and shallow lesions; fluorescent intensity compared to IR820 (ICG) [2]: greater fluorescent intensity at each concentration and lesion depth compared to IR820 (ICG) |
